Several values for one entry are separate records, joined by “and”; a condition that tells them apart may be missing. Identical values can stand only once.
target: T1, LAPTc (acidic M17 leucyl-aminopeptidase from T. cruzi) (Trypanosoma cruzi, UniProt V5BWE3); assay: High-throughput single point screening for LAPTc inhibitors by RapidFire-MS; assay type: biochemical; conditions: primary screen, 30 μM, single replicate; read-out: Percent Inhibition
Method: (§1) This assay was previously described. The assay was performed in 384-well clear F-bottom polypropylene plates with a final reaction volume of 15 μL. The reaction mixture contained 7.5 μL LAPTc in 50 mM Tris-HCl, pH 7.5, 0.005% NP-40 and 7.5 μL LSTVIVR peptide substrate (Cambridge Research Biochemicals, Billingham, UK) in the same buffer was added to start the reaction. The reaction was performed at room temperature for 40 min and then stopped with 85 μL 1% formic acid containing 0.15 mg/mL STVIVR* internal standard (Cambridge Research Biochemicals, Billingham, UK).
Single point screening of a library of 3329 compounds was performed in 384-well clear plates (Greiner 781101) at room temperature. Test compounds (45 nL in DMSO) were transferred to assay plates by an ECHO 550 acoustic dispenser (Labcyte). LAPTc was tested at 3 nM with 150 μM (approximately the value of the apparent Michaelis-Menten constant -appKM- [16]) LSTVIVR peptide substrate in a 40 min reaction. Before addition of substrate, LAPTc was preincubated with 45 nL compounds or DMSO for 15 min. Compounds, dissolved in DMSO, were tested at 30 μM. Controls without compound (the same volume of DMSO, 0% inhibitory effect) and without enzyme and compound (100% inhibitory effect) were prepared. The experiment was performed without replicates. The remaining experimental conditions were maintained as previously described. Data were processed and analysed through ActivityBase XE (IDBS). The selection criterion for hits in this single point screen was percent inhibition larger than the mean plus three standard deviations. All primary screening data are available in ChEMBL (see Data Availability statement).

T1 sequence (V5BWE3 entry or part of it): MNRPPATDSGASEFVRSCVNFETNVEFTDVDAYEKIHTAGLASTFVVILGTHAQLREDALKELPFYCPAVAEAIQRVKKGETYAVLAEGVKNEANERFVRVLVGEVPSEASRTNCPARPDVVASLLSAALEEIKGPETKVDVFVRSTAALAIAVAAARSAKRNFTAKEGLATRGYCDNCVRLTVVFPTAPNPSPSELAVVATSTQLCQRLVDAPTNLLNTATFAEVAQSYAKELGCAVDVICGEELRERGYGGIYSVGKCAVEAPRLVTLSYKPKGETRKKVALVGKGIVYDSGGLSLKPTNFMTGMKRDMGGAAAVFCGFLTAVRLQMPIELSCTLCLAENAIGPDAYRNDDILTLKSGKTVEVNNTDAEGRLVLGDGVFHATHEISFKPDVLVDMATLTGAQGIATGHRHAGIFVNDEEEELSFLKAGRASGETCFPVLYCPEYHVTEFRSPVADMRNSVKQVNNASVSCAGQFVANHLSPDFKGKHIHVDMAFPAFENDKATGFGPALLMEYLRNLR

Row | Compound | inhibition at 30 µM
1 | O=C(NCC(=O)N1CCc2ccccc2C1)C1CCCCC1 [Compound 9] | 49%
2 | COc1ccc(CC(=O)Nc2nc(-c3ccccn3)cs2)c(OC)c1 [Compound 12] | 42%

system: not listed separately; assay: Cytotoxicity assay on human HepG2 cells (resazurin); assay type: cell-based; conditions: human, HepG2 cells, 72 h, two independent experiments; read-out: pCC50 (HepG2) (converted)

Row | Compound | CC50 at 72 h
3 | O=C(NCC(=O)N1CCc2ccccc2C1)C1CCCCC1 [Compound 9] | > 100 µM
4 | COc1ccc(CC(=O)Nc2nc(-c3ccccn3)cs2)c(OC)c1 [Compound 12] | > 100 µM

system: HepG2 cells; assay: as above; assay type: cell-based; conditions: individual replicates

Row | Compound | Max Effect (HepG2) | pEC50 (HepG2)
5 | O=C(NCC(=O)N1CCc2ccccc2C1)C1CCCCC1 [Compound 9] | 3.76 and 2.85 | < 4.0
6 | COc1ccc(CC(=O)Nc2nc(-c3ccccn3)cs2)c(OC)c1 [Compound 12] | 11 and 10 | < 4.0

system: not listed separately; assay: Cytotoxicity against infected Vero host cells in T. cruzi intracellular assay; assay type: cell-based, African green monkey; set-up: Max Effect (Vero): unit not given here; conditions: African green monkey, Vero cells infected with T. cruzi; infected Vero host cells, 96 h; read-out: pCC50 (Vero) +/- StDev (converted)
Method: (§2) Briefly, these cells were maintained at 37°C and 5% CO2 in MEM supplemented with 10% FCS, sub-culturing every 2–3 days at a ratio of 1:5 after 5 min treatment with Trypsin-EDTA (Gibco).
(§3) This assay was performed as described with the only modification that treatment was 96 h instead of 72 h. Briefly, Vero cells were infected overnight with tissue culture derived T. cruzi trypomastigotes in T225 tissue culture flasks (MOI 5). Any remaining free trypomastigotes were washed away with serum free MEM and the infected Vero cells were harvested by trypsinisation. Compounds (250 nL in DMSO) were dispensed using LabCyte ECHO (Beckman Coulter Life Sciences, USA) into each well of Corning black flat bottomed 384-well plates (Corning, USA). […] The infected Vero cells were then plated into the plates containing the compounds, at 4,000 cells per well in MEM media with 1% FCS. […] The plates were imaged on a Perkin Elmer Operetta high-content imaging system using a 20× objective. Images were analyzed using the Columbus system (Perkin Elmer). The algorithm first identified the Vero nuclei followed by demarcation of the cytoplasm and identification of intracellular amastigotes. This algorithm reported percent infected Vero cell and total number of Vero cells. All potency determinations were carried out in at least three independent replicates and are reported as pEC50 +/- standard deviation. pEC50 = -log(EC50[M]).

Row | Compound | CC50 at 96 h
7 | O=C(NCC(=O)N1CCc2ccccc2C1)C1CCCCC1 [Compound 9] | > 50.1 µM
8 | COc1ccc(CC(=O)Nc2nc(-c3ccccn3)cs2)c(OC)c1 [Compound 12] | 1 µM

system: Vero cells; assay: as above; assay type: cell-based, African green monkey; set-up: Max Effect (Vero): unit not given here; conditions: individual replicates
Method: as §2, §3

Row | Compound | Max Effect (Vero) | pEC50 (Vero)
9 | O=C(NCC(=O)N1CCc2ccccc2C1)C1CCCCC1 [Compound 9] | 7 and 4 and 15 and 11 | < 4.3
10 | COc1ccc(CC(=O)Nc2nc(-c3ccccn3)cs2)c(OC)c1 [Compound 12] | 46 and 49 and 51 | 

target: T1, LAPTc (acidic M17 leucyl-aminopeptidase from T. cruzi); assay: Dose-response studies for LAPTc inhibition by RapidFire-MS; assay type: biochemical; conditions: Initial hit confirmation, single replicate
Method: as §1
To generate half-maximum inhibitory concentration (IC50) data for LAPTc, 10-point dose-response curves with 100 μM as highest concentration and 1:2 dilution in DMSO (0.195–100 μM range) were prepared in 384 well plates. All other experimental conditions were as described above. All IC50 curve fitting was performed by four-parameter logistic dose-response curve fit using ActivityBase XE (IDBS). At least three replicates were generated for each hit compound.

Row | Compound | Hill Slope
11 | O=C(NCC(=O)N1CCc2ccccc2C1)C1CCCCC1 [Compound 9] | 1.7
12 | COc1ccc(CC(=O)Nc2nc(-c3ccccn3)cs2)c(OC)c1 [Compound 12] | 2.1

same assay, conditions: Initial hit confirmation, single replicate; read-out: Maximum Effect

Row | Compound | Emax
13 | O=C(NCC(=O)N1CCc2ccccc2C1)C1CCCCC1 [Compound 9] | 54%
14 | COc1ccc(CC(=O)Nc2nc(-c3ccccn3)cs2)c(OC)c1 [Compound 12] | 84%

same assay, conditions: Initial hit confirmation, single replicate; read-out: pIC50 (converted)

Row | Compound | IC50
15 | O=C(NCC(=O)N1CCc2ccccc2C1)C1CCCCC1 [Compound 9] | 15.8 µM
16 | COc1ccc(CC(=O)Nc2nc(-c3ccccn3)cs2)c(OC)c1 [Compound 12] | 20 µM

same assay, conditions: Replicate data generation, individual replicates

Row | Compound | Hill Slope | Maximum Effect
17 | O=C(NCC(=O)N1CCc2ccccc2C1)C1CCCCC1 [Compound 9] | 0.749 and 0.7 and 0.655 | 67% and 63%
18 | COc1ccc(CC(=O)Nc2nc(-c3ccccn3)cs2)c(OC)c1 [Compound 12] | 1.0 and 0.9 and 1.3 | 67% and 73%

same assay, conditions: Replicate data generation, individual replicates; read-out: Maximum Effect

Row | Compound | Emax
19 | O=C(NCC(=O)N1CCc2ccccc2C1)C1CCCCC1 [Compound 9] | 64%
20 | COc1ccc(CC(=O)Nc2nc(-c3ccccn3)cs2)c(OC)c1 [Compound 12] | 68%

same assay, conditions: Replicate data generation, individual replicates; read-out: pIC50 (converted)

Row | Compound | IC50
21 | O=C(NCC(=O)N1CCc2ccccc2C1)C1CCCCC1 [Compound 9] | 39.8 µM and 31.6 µM
22 | COc1ccc(CC(=O)Nc2nc(-c3ccccn3)cs2)c(OC)c1 [Compound 12] | 31.6 µM and 20 µM

same assay, conditions: average of four independent replicates; read-out: pIC50 +/- StDev (LAPTc) (converted)

Row | Compound | IC50
23 | O=C(NCC(=O)N1CCc2ccccc2C1)C1CCCCC1 [Compound 9] | 28.8 µM
24 | COc1ccc(CC(=O)Nc2nc(-c3ccccn3)cs2)c(OC)c1 [Compound 12] | 25.1 µM

same assay, conditions: whether primary screen hit confirmed in potency experiment

Row | Compound | Hit Confirmation
25 | O=C(NCC(=O)N1CCc2ccccc2C1)C1CCCCC1 [Compound 9] | confirmed
26 | COc1ccc(CC(=O)Nc2nc(-c3ccccn3)cs2)c(OC)c1 [Compound 12] | confirmed

system: intracellular T. cruzi amastigotes; assay: T. cruzi intracellular assay (high-content imaging, infected Vero cells); assay type: cell-based, Trypanosoma cruzi; set-up: Max Effect (T. cruzi): unit not given here; conditions: Trypanosoma cruzi, Vero, 96 h, four independent experiments; read-out: pEC50 (T. cruzi) +/- StDev (converted)
Method: T. cruzi parasite, TcI strain Silvio X10/7 subclone A1 [34] was maintained in culture as previously described. Parasites were maintained as amastigotes by passaging on a weekly basis in Vero cells. Culture maintenance infections were carried out at an MOI (multiplicity of infection) of 1.5.
This assay was performed as described with the only modification that treatment was 96 h instead of 72 h. Briefly, Vero cells were infected overnight with tissue culture derived T. cruzi trypomastigotes in T225 tissue culture flasks (MOI 5). Any remaining free trypomastigotes were washed away with serum free MEM and the infected Vero cells were harvested by trypsinisation. Compounds (250 nL in DMSO) were dispensed using LabCyte ECHO (Beckman Coulter Life Sciences, USA) into each well of Corning black flat bottomed 384-well plates (Corning, USA). […] The infected Vero cells were then plated into the plates containing the compounds, at 4,000 cells per well in MEM media with 1% FCS. After 96 h incubation at 37°C in presence of 5% CO2, the plates were fixed with 4% formaldehyde for 20 min at room temperature and stained with 5 μg/mL Hoechst 33342. The plates were imaged on a Perkin Elmer Operetta high-content imaging system using a 20× objective. Images were analyzed using the Columbus system (Perkin Elmer). The algorithm first identified the Vero nuclei followed by demarcation of the cytoplasm and identification of intracellular amastigotes. This algorithm reported percent infected Vero cell and total number of Vero cells. All potency determinations were carried out in at least three independent replicates and are reported as pEC50 +/- standard deviation. pEC50 = -log(EC50[M]).

Row | Compound | EC50
27 | O=C(NCC(=O)N1CCc2ccccc2C1)C1CCCCC1 [Compound 9] | > 50.1 µM
28 | COc1ccc(CC(=O)Nc2nc(-c3ccccn3)cs2)c(OC)c1 [Compound 12] | 7.08 µM

same assay, conditions: Trypanosoma cruzi, Vero, individual replicates; read-out: Max Effect (T. cruzi)

Row | Compound | Emax
29 | O=C(NCC(=O)N1CCc2ccccc2C1)C1CCCCC1 [Compound 9] | 31%
30 | COc1ccc(CC(=O)Nc2nc(-c3ccccn3)cs2)c(OC)c1 [Compound 12] | 98%

same assay, conditions: Trypanosoma cruzi, Vero, individual replicates; read-out: pEC50 (T. cruzi) (converted)

Row | Compound | EC50
31 | O=C(NCC(=O)N1CCc2ccccc2C1)C1CCCCC1 [Compound 9] | > 50.1 µM
32 | COc1ccc(CC(=O)Nc2nc(-c3ccccn3)cs2)c(OC)c1 [Compound 12] | 7.94 µM

same assay, conditions: individual replicates

Row | Compound | Max Effect (T. cruzi) | pEC50 (T. cruzi)
33 | O=C(NCC(=O)N1CCc2ccccc2C1)C1CCCCC1 [Compound 9] | 27 and 21 and 30 | 
34 | COc1ccc(CC(=O)Nc2nc(-c3ccccn3)cs2)c(OC)c1 [Compound 12] | 100 and 94 | 5.2

Reference: paper PMC10901353, “Identification of a potent and selective LAPTc inhibitor by RapidFire-Mass Spectrometry, with antichagasic activity” (PLOS Neglected Tropical Diseases, 2024)
